According to patent publication US20110105509A1 (Wyeth, LLC, priority 2009, published 2011):

Target: T1, CRTH2 (Homo sapiens, UniProt Q9Y5Y4)
T1 construct: expressed in transfected cells; host or cells: CHO cells
T1 sequence (Q9Y5Y4 1-395): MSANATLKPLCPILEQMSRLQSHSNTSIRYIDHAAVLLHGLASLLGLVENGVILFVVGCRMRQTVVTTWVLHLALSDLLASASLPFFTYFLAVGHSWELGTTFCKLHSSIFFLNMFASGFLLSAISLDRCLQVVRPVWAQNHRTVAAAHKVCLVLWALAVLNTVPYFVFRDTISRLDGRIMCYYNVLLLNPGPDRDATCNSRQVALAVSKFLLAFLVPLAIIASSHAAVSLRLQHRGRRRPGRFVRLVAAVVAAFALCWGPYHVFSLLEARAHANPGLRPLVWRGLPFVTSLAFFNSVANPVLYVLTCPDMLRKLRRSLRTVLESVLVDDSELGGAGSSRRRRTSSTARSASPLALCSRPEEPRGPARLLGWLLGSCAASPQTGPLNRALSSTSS
Assay: FRET based competitive immunoassay (cAMP) in CRTH2 expressing CHO cells
Format: cell-based
Conditions: CRTH2 expressing CHO cells incubated with forskolin and PGD2; Eu3+ cryptate-labeled anti-cAMP and d2-labeled cAMP
Procedure: FRET Assay: To evaluate potency compounds were tested in a FRET based competitive immunoassay in which CRTH2 expressing CHO cells were incubated in the presence of forskolin and PGD2 along with Eu3+ cryptate-labeled anti-cAMP and d2-labeled cAMP.

| Structure (SMILES) | IC50 |
| --- | --- |
| COc1ccc(C(=O)n2c(C)c(-c3ccc(=O)n(Cc4ccccc4)n3)c3cc(F)ccc32)cc1 [Example 262a, 2-benzyl-6-(5-fluoro-1-(4-methoxybenzoyl)-2-methyl-1H-indol-3-yl)-pyridazin-3(2H)-one] | > 10000 nM |
| Cc1c(-c2cn(Cc3ccccn3)c(=O)c3ccccc23)c2cc(F)ccc2n1CC(=O)O [Example 95, 2-(5-fluoro-2-methyl-3-(1-oxo-2-(pyridin-2-ylmethyl)-1,2-dihydro-isoquinolin-4-yl)-1H-indol-1-yl)acetic acid] | 9 nM |
| Cc1c(Cc2ccc(=O)n(Cc3ccc(F)cc3F)c2)c2cc(F)ccc2n1CC(=O)O [Example 20, 2-(3-((1-(2,4-Difluorobenzyl)-6-oxo-1,6-dihydropyridin-3-yl)methyl)-5-fluoro-2-methyl-1H-indol-1-yl)acetic acid] | 5 nM |
| Cc1c(Cc2ccc(=O)n(Cc3cccc(F)c3)c2)c2cc(F)ccc2n1CC(=O)O [Example 39, 2-(5-Fluoro-3-((1-(3-fluorobenzyl)-6-oxo-1,6-dihydropyridin-3-yl)methyl)-2-methyl-1H-indol-1-yl)acetic acid] | 4 nM |
| Cc1c(-c2ccc(=O)n(CCc3ccccc3)n2)c2ccccc2n1CC(=O)O [Example 228, 2-(2-methyl-3-(6-oxo-1-phenethyl-1,6-dihydropyridazin-3-yl)-1H-indol-1-yl)acetic acid] | 147 nM |
| Cc1c(-c2nn(Cc3c(F)cccc3F)c(=O)c3ccccc23)c2cc(Cl)ccc2n1CC(=O)O [Example 101, 2-(5-chloro-3-(3-(2,6-difluorobenzyl)-4-oxo-3,4-dihydrophthalazin-1-yl)-2-methyl-1H-indol-1-yl)acetic acid] | 10 nM |
| Cc1ccc(Cn2nc(-c3c(C)n(CC(=O)O)c4ccc(Cl)cc34)ccc2=O)cc1 [Example 146, 2-(5-chloro-2-methyl-3-(1-(4-methylbenzyl)-6-oxo-1,6-dihydropyridazin-3-yl)-1H-indol-1-yl)acetic acid] | 74 nM |
| Cc1c(-c2nn(Cc3cccnc3)c(=O)c3ccccc23)c2cc(F)ccc2n1CC(=O)O [Example 135, 2-(5-fluoro-2-methyl-3-(4-oxo-3-(pyridin-3-ylmethyl)-3,4-dihydrophthalazin-1-yl)-1H-indol-1-yl)acetic acid] | 5 nM |
| Cc1ccc(Cn2nc(-c3c(C)n(CC(=O)O)c4ccccc34)c3ccccc3c2=O)cc1 [Example 173, 2-(2-methyl-3-(3-(4-methylbenzyl)-4-oxo-3,4-dihydrophthalazin-1-yl)-1H-indol-1-yl)acetic acid] | 76 nM |
| Cc1c(-c2ccc(=O)n(C)n2)c2ccccc2n1CC(=O)O [Example 183, 2-(2-methyl-3-(1-methyl-6-oxo-1,6-dihydropyridazin-3-yl)-1H-indol-1-yl)-acetic acid] | 4990 nM |
| Cc1c(-c2nn(Cc3nc4cc(F)ccc4s3)c(=O)c3ccccc23)c2cc(Cl)ccc2n1CC(=O)O [Example 99, 2-(5-chloro-3-(3-((5-fluorobenzo[d]thiazol-2-yl)methyl)-4-oxo-3,4-dihydrophthalazin-1-yl)-2-methyl-1H-indol-1-yl)acetic acid] | 10 nM |
| Cc1c(-c2ccc(=O)n(Cc3ccc4ccccc4n3)n2)c2cc(F)ccc2n1CC(=O)O [Example 157, 2-(5-fluoro-2-methyl-3-(6-oxo-1-(quinolin-2-ylmethyl)-1,6-dihydro-pyridazin-3-yl)-1H-indol-1-yl)acetic acid] | 57 nM |
| Cc1c(-c2cn(CCC(C(F)(F)F)C(F)(F)F)c(=O)c3ccccc23)c2cc(F)ccc2n1CC(=O)O [Example 96, 2-(5-fluoro-2-methyl-3-(1-oxo-2-(4,4,4-trifluoro-3-(trifluoromethyl)butyl)-1,2-dihydroisoquinolin-4-yl)-1H-indol-1-yl)acetic acid] | 296 nM |
| Cc1c(-c2nn(Cc3ccc4ccccc4n3)c(=O)c3ccccc23)c2cc(Cl)ccc2n1CC(=O)O [Example 103, 2-(5-chloro-2-methyl-3-(4-oxo-3-(quinolin-2-ylmethyl)-3,4-dihydro-phthalazin-1-yl)-1H-indol-1-yl)acetic acid] | 11 nM |
| Cc1nnc(Cn2nc(-c3c(C)n(CC(=O)O)c4ccc(F)cc34)ccc2=O)[nH]1 [Example 260b, 2-(5-fluoro-2-methyl-3-(1-((5-methyl-4H-1,2,4-triazol-3-yl)methyl)-6-oxo-1,6-dihydro-pyridazin-3-yl)-1H-indol-1-yl)acetic acid] | 1650 nM |
| Cc1c(Cc2ccc(=O)n(C(C)C)c2)c2cc(F)ccc2n1CC(=O)O [Example 27, 2-(5-fluoro-3-((1-isopropyl-6-oxo-1,6-dihydropyridin-3-yl)methyl)-2-methyl-1H-indol-1-yl)acetic acid] | 137 nM |
| Cc1c(-c2cn(Cc3ccccc3)c(=O)c3ccccc23)c2cc(F)ccc2n1CC(=O)O [Example 248, 2-(3-(2-benzyl-1-oxo-1,2-dihydroisoquinolin-4-yl)-5-fluoro-2-methyl-1H-indol-1-yl)acetic acid] | 15 nM |

| Structure (SMILES) | IC50 |
| --- | --- |
| Cc1c(-c2nn(Cc3nnc[nH]3)c(=O)c3ccccc23)c2cc(Cl)ccc2n1CC(=O)O [Example 259a, 2-(3-(3-((4H-1,2,4-triazol-3-yl)methyl)-4-oxo-3,4-dihydrophthalazin-1-yl)-5-chloro-2-methyl-1H-indol-1-yl)acetic acid] | 61 nM |
| Cc1ccc2c(c1)c(-c1ccc(=O)n(CC(F)(F)F)c1)c(C)n2CC(=O)O [Example 304, 2-(2,5-dimethyl-3-(6-oxo-1-(2,2,2-trifluoroethyl)-1,6-dihydropyridin-3-yl)-1H-indol-1-yl)acetic acid] | 1180 nM |
| Cc1c(-c2nn(Cc3ccccc3)c(=O)c3ccccc23)c2ccccc2n1CCO [Example 52, 2-Benzyl-4-(1-(2-hydroxyethyl)-2-methyl-1H-indol-3-yl)phthalazin-1(2H)-one] | > 2000 nM |
| Cc1c(Cc2ccc(=O)n(CC(F)(F)F)c2)c2cc(Cl)ccc2n1CC(=O)O [Example 53, 2-(5-Chloro-2-methyl-3-((6-oxo-1-(2,2,2-trifluoroethyl)-1,6-dihydropyridin-3-yl)methyl)-1H-indol-1-yl)acetic acid] | 55 nM |
| Cc1c(Cc2ccc(=O)n(Cc3cc(F)ccc3F)c2)c2cc(F)ccc2n1CC(=O)O [Example 26, 2-(3-((1-(2,5-Difluorobenzyl)-6-oxo-1,6-dihydropyridin-3-yl)methyl)-5-fluoro-2-methyl-1H-indol-1-yl)acetic acid] | 8 nM |
| Cc1c(-c2ccc(=O)n(C(C)C)n2)c2cc(F)ccc2n1CC(=O)O [Example 334, [5-fluoro-3-(1-isopropyl-6-oxo-1,6-dihydropyridazin-3-yl)-2-methyl-1H-indol-1-yl]-acetic acid] | 210 nM |
| Cc1c(-c2nn(-c3cccc(C(F)(F)F)c3)c(=O)c3ccccc23)c2cc(F)ccc2n1CC(=O)O [Example 207, 2-(5-fluoro-2-methyl-3-(4-oxo-3-(3-(trifluoromethyl)phenyl)-3,4-dihydrophthalazin-1-yl)-1H-indol-1-yl)acetic acid] | 588 nM |
| Cc1c(-c2nn(C3CC3)c(=O)c3ccccc23)c2ccccc2n1CC(=O)O [Example 178, 2-(3-(3-cyclopropyl-4-oxo-3,4-dihydrophthalazin-1-yl)-2-methyl-1H-indol-1-yl)-acetic acid] | 215 nM |
| Cc1c(-c2ccc(=O)n(CC(F)(F)F)c2)c2cc(F)ccc2n1CC(=O)O [Example 280, 2-(5-Fluoro-2-methyl-3-(6-oxo-1-(2,2,2-trifluoroethyl)-1,6-dihydropyridin-3-yl)-1H-indol-1-yl)acetic acid] | 117 nM |
| CCn1nc(-c2c(C)n(CC(=O)O)c3ccc(F)cc23)c2ccccc2c1=O [Example 121, 2-(3-(3-ethyl-4-oxo-3,4-dihydrophthalazin-1-yl)-5-fluoro-2-methyl-1H-indol-1-yl)acetic acid] | 55 nM |
| Cc1c(-c2nn(Cc3cccc(C(F)(F)F)c3)c(=O)c3ccccc23)c2cc(Cl)ccc2n1CC(=O)O [Example 200, 2-(5-Chloro-2-methyl-3-(4-oxo-3-(3-(trifluoromethyl)benzyl)-3,4-dihydro-phthalazin-1-yl)-1H-indol-1-yl)acetic acid] | 45 nM |
| COC(F)(F)Cn1cc(-c2c(C)n(CC(=O)O)c3ccccc23)c2ccccc2c1=O [Example 253, 2-(3-(2-(2,2-difluoro-2-methoxyethyl)-1-oxo-1,2-dihydroisoquinolin-4-yl)-2-methyl-1H-indol-1-yl)acetic acid] | 9 nM |
| Cc1c(-c2nn(Cc3ccc4ccccc4n3)c(=O)c3ccccc23)c2cc(F)ccc2n1CC(=O)O [Example 118, 2-(5-fluoro-2-methyl-3-(4-oxo-3-(quinolin-2-ylmethyl)-3,4-dihydro-phthalazin-1-yl)-1H-indol-1-yl)acetic acid] | 9 nM |
| Cc1c(-c2nn(CC(F)(F)F)c(=O)c3ccccc23)c2cc(Cl)ccc2n1CC(=O)O [Example 109, 2-(5-chloro-2-methyl-3-(4-oxo-3-(2,2,2-trifluoroethyl)-3,4-dihydro-phthalazin-1-yl)-1H-indol-1-yl)acetic acid] | 42 nM |
| Cc1c(-c2ccc(=O)n(Cc3ccccc3)n2)c2ccccc2n1CC(=O)O [Example 180, 2-(3-(1-benzyl-6-oxo-1,6-dihydropyridazin-3-yl)-2-methyl-1H-indol-1-yl)-acetic acid] | 96 nM |
| Cc1c(-c2ccc(=O)n(CC(C)(C)C)n2)c2cc(F)ccc2n1CC(=O)O [Example 165, 2-(5-fluoro-2-methyl-3-(1-neopentyl-6-oxo-1,6-dihydropyridazin-3-yl)-1H-indol-1-yl)acetic acid] | > 1000 nM |
